In one experiment the target is T1, HBV polymerase (Hepatitis B virus genotype A2 subtype adw2, UniProt P03159).
T1 construct: made in house; host or cells: E. coli
Nature of the experiment: In vitro reverse transcription activity of HBV polymerase (ELISA-type, DIG/biotin nucleotides). The settings on record: for inhibition at 0.01 µg/mL / inhibition at 0.1 µg/mL / inhibition at 1 µg/mL: read-out: Inhibition activity on HBV-RT (%). The experiment is classed as biochemical. Here is the method:
<Experiment 1> Inhibitory Effect on the In Vitro Activities of HBV Polymerase in Reverse Transcription
The following in vitro experiment was performed to determine the effect of the compounds of formula 1 on the activity of HBV polymerase during reverse transcription.
The present inventors submitted application for a patent concerning HBV polymerase genetically expressed in and separated from E.coli, the process of its preparation, and the method to measure the enzyme activities (KR 94-3918, KR 96-33998). In the present experiments HBV polymerase was used which had been expressed in E. coli as stated above.
The method used in the present invention to measure in vitro reverse transcribing activities of HBV polymerase is as follows. Basic principles are the same as for ELISA. Nucleotides with biotin or digoxigenin group attached are included as substrates and anti-DIG antibodies attached to peroxidase enzyme recognize the polymerized substrates.
To the wells coated with streptavidin, 20 μl of HBV polymerase, 20 μl of reaction mixture (10 μM each of DIG-UTP and Biotin-UTP, 46 mM Tris-HCl, 266 mM KCl, 27.5 mM MgCl2, 9.2 mM DTT substrate/primer nybrid), and 20 μl of test compound (added to 1, 0.1, and 0.01 μg/ml) were added and allowed to react at 22° C. for 15 hrs. During this reaction, HBV polymerase catalyzes DNA synthesis and digoxigenin and biotin attached to nucleotides form bonds with streptavidin coated on the bottom of wells. When the reaction was done, each well was washed with 250 μl of cleaning buffer (pH 7.0) for 30 seconds, which was repeated five times to remove remaining impurities. 200 μl of anti-DIG-POD antibody was added to each well and allowed to react for 1 hr at 37° C., and the wells were washed with cleaning buffer to remove impurities. 200 μl each of ABTS™, a substrate of peroxidase, was then added and allowed to react at room temperature for 30 min. Absorbance was measured at 405 nm using ELISA reader.
The percentage of reduction in HBV polymerase activities for reverse transcription was calculated using the group without test compound as a control and the results are shown in Table 3.
In general terms: ELISA stands for enzyme-linked immunosorbent assay.

The next experiment relates to HBV. Nature of the experiment: Proliferation of HBV in HBV producing cell line HepG 2.2.15 (competitive PCR of culture supernatant). It counts as cell-based, Hepatitis B virus. Conditions: HepG 2.2.15, one week; for inhibition at 0.01 µg/mL / inhibition at 0.1 µg/mL / inhibition at 1 µg/mL: Hepatitis B virus, HepG2.2.15, 168 h, read-out: Inhibitory effect on the HBV proliferation: Inhibition activity on HBV-RT (%). The procedure:
<Experiment 2> Inhibitory Effect on the Proliferation of HBV in HBV Producing Cell Line
The following experiment was performed to determine inhibitory effects of compounds of formula 1 on the proliferation of HBV producing cell line.
To test for antiviral effect, replication and proliferation of HBV were measured in HepG 2.2.15, a human liver cancer cell line.
The cell concentration was adjusted to 1×10^5 cells/ml and 1 ml was added to each well of a 24-well cell culture plate, which was then kept in a culture box for 3-4 days at 37° C. under 5% CO2 until cells grew sufficiently, changing culture medium everyday. When the cells matured sufficiently, the test compounds were added to the final concentrations of 0.01, 0.1, and 1 μg/ml. One week after the addition of test compounds, the culture solution was centrifuged at 5,000 rpm for 10 min. 25 μl of supernatant was transferred to a new tube and 5 μl of lysis solution [0.54N NaOH, 0.06% NP40] was added to each tube. After keeping the tube at 37° C. for 1 hr, 30 μl of neutralizing solution [0.09N HCl 0.1MTris-HCl, pH7.4] was added as a reaction solution for competitive polymerase chain reaction (PCR).
PCR was performed using genetic sequence of HBV core protein as a matrix. PCR reaction was carried out by adding 1 unit of Taq polymerase enzyme to 25 pmol of each primer, 250 μM dNTP, 5 μl of PCR reaction solution [0.54N NaOH, 0. 06% NP40, 0.09N HCl, 0.1M Tris-HCl, pH 7.4].
DNA polymerized by PCR was electrophoresed on Agarose gel and quantitatively analyzed using an image analyzer (Gel Doc 1000, Bio-Rad) in order to evaluate the effect of compounds of the present invention on the reduction of HBV proliferation.
3TC (lamivudine) was used as a positive control at the same concentrations as those of the test compounds. The percentage of reduction in HBV proliferation was calculated using the group without test compound as a control and the results are represented in Table 4.

Experiment [1] concerns the target T2, HIV reverse transcriptase (Human immunodeficiency virus type 1 group M subtype B, UniProt P03366).
T2 construct: purchased Boehringer Mannheim
Nature of the experiment: In vitro HIV reverse transcriptase activity (non-radioactive RT assay kit). It counts as biochemical. The procedure:
<Experiment 3> Inhibitory Effect on the In Vitro HIV Enzyme Activities in Reverse Transcription
The following in vitro experiments were done to determine the effect of compounds of formula 1 on the reduction of HIV enzyme activities in reverse transcription.
Non-radioactive reverse transcriptase assay kit (Boehringer Mannheim) was used in the measurement of in vitro transcriptase activities. 20 μl (40 ng) of HIV transcriptase and 20 μl of reaction mixture containing matrix-primer hybrid poly(A)oligo(dT)15, DIG(digoxigenin)-dUTP, biotin-dUTP, and TTP were added to wells coated with streptavidin. Test compounds were also added at the final concentrations of 0.1 and 1 μg/ml and allowed to react at 37° C. for 1 hr. At this time, DNA is formed from RNA by the action of HIV reverse transcriptase, forming bonds with streptavidin coated on the bottom of wells because of digoxigenin and biotin moieties attached to nucleotides.
When the reaction was completed, each well was washed with 250 μl of cleaning buffer (pH7.0) for 30sec. five times to remove remaining impurities. 200 μl of anti-DIG-POD […] was added to each well, allowed to react at 37° C. for 1 hr and washed as above to remove impurities. 200 μl of ABTS™, a substrate for peroxidase, was added to each well and allowed to react at room temperature for 30 min. Absorbance at 405 nm was then read for each solution using ELISA reader and used for quantitative determination of inhibitory effect on the HIV transcriptase activities. The percentage of reduction in the activities of HIV reverse transcriptase was calculated using the group without test compound as control and the results are represented in Table 5.

T1 sequence (P03159 whole entry): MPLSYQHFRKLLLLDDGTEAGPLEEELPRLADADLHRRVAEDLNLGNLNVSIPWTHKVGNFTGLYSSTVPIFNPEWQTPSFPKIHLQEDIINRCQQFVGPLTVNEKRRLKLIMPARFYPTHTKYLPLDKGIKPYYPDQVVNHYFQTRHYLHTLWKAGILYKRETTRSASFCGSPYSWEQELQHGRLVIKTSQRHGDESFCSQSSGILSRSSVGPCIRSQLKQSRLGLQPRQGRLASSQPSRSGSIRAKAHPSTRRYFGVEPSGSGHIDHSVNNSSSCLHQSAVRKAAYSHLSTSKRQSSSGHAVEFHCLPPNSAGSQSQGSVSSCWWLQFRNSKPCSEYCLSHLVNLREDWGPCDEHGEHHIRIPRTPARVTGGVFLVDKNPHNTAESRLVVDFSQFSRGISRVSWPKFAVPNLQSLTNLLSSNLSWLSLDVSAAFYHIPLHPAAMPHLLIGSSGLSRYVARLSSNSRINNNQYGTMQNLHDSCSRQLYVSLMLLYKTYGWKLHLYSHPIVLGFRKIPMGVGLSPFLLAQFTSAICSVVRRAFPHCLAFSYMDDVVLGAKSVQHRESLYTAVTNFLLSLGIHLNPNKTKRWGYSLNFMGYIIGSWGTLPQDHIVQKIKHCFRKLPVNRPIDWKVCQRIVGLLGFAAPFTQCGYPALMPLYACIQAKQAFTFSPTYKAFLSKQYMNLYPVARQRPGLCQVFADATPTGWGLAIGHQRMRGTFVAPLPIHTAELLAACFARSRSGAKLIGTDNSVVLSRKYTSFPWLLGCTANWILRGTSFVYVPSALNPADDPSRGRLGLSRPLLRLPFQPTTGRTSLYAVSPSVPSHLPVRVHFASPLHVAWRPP

Regarding “6-(2-hydroxyethyl)methylamino-2-(1H-5-indazolylamino)-3-nitropyridine [Example 10]”, the “Inhibition activity on HBV-RT (%)” value was determined as 50% on HBV polymerase (0.01 μg/ml test compound), 58% at HBV polymerase (0.1 μg/ml test compound) and 78% at HBV polymerase (1 μg/ml test compound).
For the molecule `CNc1ccc([N+](=O)[O-])c(Nc2ccc3[nH]ncc3c2)n1` [Example 3, 2-(1H-5-indazolylamino)-6-methyl amino-3-nitropyridine], the “Inhibitory effect on the HBV proliferation: Inhibition activity on HBV-RT (%)” value in the experiment on HBV (0.1 μg/ml) was 35%; in the experiment with HBV (1 μg/ml), 53%. The “Inhibition activity on HBV-RT (%)” value at HBV polymerase (0.01 μg/ml test compound) came out at 20%; at HBV polymerase (0.1 μg/ml test compound), 47%; on HBV polymerase (1 μg/ml test compound) it was 58%.
Consider `Nc1ccn([C@@H]2CS[C@H](CO)O2)c(=O)n1` [Example 3TC, lamivudine, reference compound], for which the inhibition at 0.01 µg/mL in the experiment on HBV (0.01 μg/ml) is 48%. Besides, in the experiment with HBV (0.1 μg/ml), the inhibition at 0.1 µg/mL worked out at 80%. The inhibition at 1 µg/mL with HBV (1 μg/ml) stood at 99%.
As for `O=[N+]([O-])c1ccc(NC2CC2)nc1Nc1ccc2[nH]ncc2c1` [Example 8, 6-cyclopropylamino-2-(1H-5-indazolylamino)-3-nitropyridine], the inhibition at 0.01 µg/mL with HBV (0.01 μg/ml) came to 25%; on HBV polymerase (0.01 μg/ml test compound), 38%. The inhibition at 0.1 µg/mL with HBV (0.1 μg/ml) stood at 46%; on HBV polymerase (0.1 μg/ml test compound), 52%. In addition, the values for the inhibition at 1 µg/mL in the experiment with HBV (1 μg/ml) and at HBV polymerase (1 μg/ml test compound) were 65% and 72%, respectively.
In the case of `Nc1ccc([N+](=O)[O-])c(Nc2ccc3[nH]ncc3c2)n1` [Example 9, 6-amino-2-(1H-5-indazolylamino)-3-nitropyridine], the inhibition at 0.01 µg/mL at HBV polymerase (0.01 μg/ml test compound) was determined as 40%. On HBV polymerase (0.1 μg/ml test compound), the inhibition at 0.1 µg/mL stood at 59%. Besides, the inhibition at 1 µg/mL at HBV polymerase (1 μg/ml test compound) was found to be 80%.
In the case of `C[C@@H](CCO)Nc1ccc([N+](=O)[O-])c(Nc2ccc3cn[nH]c3c2)n1` [Example 13, 6-[(1S)-1-(hydroxyethyl)ethylamino]-2-(1H-6-indazolylamino)-3-nitropyridine], the inhibition at 0.01 µg/mL on HBV polymerase (0.01 μg/ml test compound) is 10%. Moreover, the inhibition at 0.1 µg/mL at HBV polymerase (0.1 μg/ml test compound) turned out to be 35%. Also, the inhibition at 1 µg/mL at HBV polymerase (1 μg/ml test compound) was 66%.
For `COCC(C)Nc1ccc([N+](=O)[O-])c(Nc2ccc3[nH]ncc3c2)n1` (stereo not shown) [Example 15, 2-(1H-5-indazolylamino)-6-(2-methoxy-1-methyl)ethylamino-3-nitropyridine], the “Inhibitory effect on the HBV proliferation: Inhibition activity on HBV-RT (%)” value with HBV (0.01 μg/ml) is recorded as 36%; in the experiment on HBV (0.1 μg/ml), 60%; in the experiment with HBV (1 μg/ml) it was 95%. Further, the entries for the “Inhibition activity on HBV-RT (%)” value on HBV polymerase (0.01 μg/ml test compound), on HBV polymerase (0.1 μg/ml test compound) and on HBV polymerase (1 μg/ml test compound) were 47%, 68% and 97%, respectively.
Turning to `CN(C)CCNc1ccc([N+](=O)[O-])c(Nc2ccc3cn[nH]c3c2)n1` [Example 16, 6-[2-(dimethylamino)ethylamino]-2-(1H-6-indazolylamino)-3-nitropyridine], on HBV polymerase (0.01 μg/ml test compound), the inhibition at 0.01 µg/mL amounted to 38%. Moreover, at HBV polymerase (0.1 μg/ml test compound), the inhibition at 0.1 µg/mL was 55%. At HBV polymerase (1 μg/ml test compound), the inhibition at 1 µg/mL was 80%. Also, the entries for the “Inhibitory effect on the activities of HIV reverse transcriptase: Inhibition activity on HIV-RT (%)” value in experiment [1] (0.1 μg/ml test compound) and in experiment [1] (1 μg/ml test compound) were 51% and 75%, respectively.
For `CN1CCN(Nc2ccc([N+](=O)[O-])c(Nc3ccc4[nH]ncc4c3)n2)CC1` [Example 17, 2-(1H-5-indazolylamino)-6-(4-methyl-1-piperazinyl)amino-3-nitropyridine], the inhibition at 0.01 µg/mL on HBV polymerase (0.01 μg/ml test compound) stood at 41%. In addition, the inhibition at 0.1 µg/mL on HBV polymerase (0.1 μg/ml test compound) was found to be 52%. On HBV polymerase (1 μg/ml test compound), the inhibition at 1 µg/mL was determined as 75%.
In the case of `O=[N+]([O-])c1ccc(NCc2cccnc2)nc1Nc1ccc2[nH]ncc2c1` [Example 19, 2-(1H-5-indazolylamino)-3-nitro-6-(3-pyridyl)methylaminopyridine], the inhibition at 0.01 µg/mL was determined as 30% in the experiment with HBV (0.01 μg/ml) and 42% at HBV polymerase (0.01 μg/ml test compound). The results for the inhibition at 0.1 µg/mL in the experiment on HBV (0.1 μg/ml) and on HBV polymerase (0.1 μg/ml test compound) were 51% and 58%, respectively. The inhibition at 1 µg/mL turned out to be 85% in the experiment with HBV (1 μg/ml) and 91% on HBV polymerase (1 μg/ml test compound).
`CN1CCN(c2ccc([N+](=O)[O-])c(Nc3ccc4[nH]ncc4c3)n2)CC1` [Example 25, 2-(1H-5-indazolylamino)-6-(4-methyl-1-piperazinyl)-3-nitropyridine]: the inhibition at 0.01 µg/mL came out at 25% with HBV (0.01 μg/ml) and 35% at HBV polymerase (0.01 μg/ml test compound). In addition, the inhibition at 0.1 µg/mL is 46% with HBV (0.1 μg/ml) and 54% at HBV polymerase (0.1 μg/ml test compound). Besides, the inhibition at 1 µg/mL in the experiment with HBV (1 μg/ml) came out at 83%; on HBV polymerase (1 μg/ml test compound), 88%.
Consider `CN1CCN(c2ccc([N+](=O)[O-])c(Nc3ccc4cn[nH]c4c3)n2)CC1` [Example 26, 2-(1H-6-indazolylamino)-6-(4-methyl-1-piperazinyl)-3-nitropyridine], for which, at HBV polymerase (0.01 μg/ml test compound), the inhibition at 0.01 µg/mL worked out at 18%. The inhibition at 0.1 µg/mL at HBV polymerase (0.1 μg/ml test compound) is 40%. Besides, on HBV polymerase (1 μg/ml test compound), the inhibition at 1 µg/mL worked out at 63%.
Regarding `O=[N+]([O-])c1ccc(N2CCC(O)CC2)nc1Nc1ccc2[nH]ncc2c1` [Example 28, 6-(4-hydroxy-1-piperidinyl)-2-(1H-5-indazolylamino)-3-nitropyridine], the inhibition at 0.01 µg/mL at HBV polymerase (0.01 μg/ml test compound) came to 20%. Also, the inhibition at 0.1 µg/mL at HBV polymerase (0.1 μg/ml test compound) was 34%. Moreover, the inhibition at 1 µg/mL at HBV polymerase (1 μg/ml test compound) is 55%.
For `O=[N+]([O-])c1ccc(N2CCC(O)CC2)nc1Nc1ccc2cn[nH]c2c1` [Example 29, 6-(4-hydroxy-1-piperidinyl)-2-(1H-6-indazolylamino)-3-nitropyridine] the same measures were 10%, 35% and 52%.
